Patent EP0961591B1, “METHOD TO ENHANCE TISSUE AC[…] RADIOLABELED COMPOUNDS” (BOARD OF SUPERVISORS OF LOUISIANA STATE UNIVERSITY AND …, priority 1997, dated 1999)
Where “and” joins values, the source holds several entries; their conditions need not be identical. Equal entries are not always repeated. Where two headings read alike, the source gives them in different places.

How the values were obtained:
[1] = tested on: human angiogenic vascular tissue; assay: Human Placental Vein Angiogenesis Model; type: cell-based; settings: 50 µCi/mL (or equivalent amounts), 14 days
Text: Watson et al., "Up-Regulation of Somatostatin Receptor Subtype 2 (SST-2) mRNA Occurs During the Transformation of Human Endothelium to the Angiogenic Phenotype," Paper Presented at the 12th International Symposium on Regulatory Peptides, Copenhagen, Denmark, September 1996; J.C. Watson et al., "SST-2 Gene Expression Appears During Human Angiogenesis," Regulatory Peptides, vol. 64, p. 206 (Abstract) (1996); and J.C. Watson et al., "Breast Cancer Increases Initiation of Angiogenesis Without Accelerating Neovessel Growth Rate," Surgery, vol. 122, pp. 508-14 (1997). Human placental veins were cut into discs of 2 mm diameter and were incorporated into a 0.3% fibrinogen gel. This gel was then overlaid with tissue culture media containing 10-20 % fetal calf serum (FCS). Under normal conditions, endothelial cords will begin to sprout from the transected cut edge of the vein discs within six days.
These vein discs were placed into wells of three separate culture plates. One culture plate, the control sample, was allowed to grow without treatment. […] The discs were then incubated for fourteen days. […]
Using a digital image analyzer, the mean area of the sprouting tissue surrounding the discs was measured.
To measure the growth rate of angiogenic vascular tissue, every two days during the 14-day incubation period, the length of sprouts were measured. […]

[2] = tested on: tumor in the left side of the neck
Method: During and after each administration of the last eight doses, a tumor in the left side of the neck was monitored for radioligand uptake with an ion chamber survey meter, a Victoreen 450P ion chamber, which measures external gamma dose rates. Administration of the initial seven doses were by bolus injection. The last three doses were delivered by infusion with various activities of radioligand.
The external gamma dose rates from radioligand accumulation in the neck tumor area were measured immediately and 24 hr after injection.
Four months after the final bolus dose, the first dose by infusion ("Infusion 1") was administered. A dose equivalent to the previous bolus dose (175.9 mCi) was given, but the radioligand was administered by infusion over 72 hr at a constant rate of 2.5 mCi/hr.
One month later, in "Infusion 2," the total dose was increased to 389.2 mCi. By infusion, 189.8 mCi of the radioligand was given over the first 24 hr, 108.6 mCi over the second 24 hr, and 90.8 mCi over the third 24 hr. For each 24 hr period, the infusion rate was kept constant.
One month later, a third dose was administered by infusion ("Infusion 3"). A dose of 301 mCi was infused the first 24 hr period. In two subsequent 24 hr periods, 25 and 21 mCi were infused.

DNA of SKNSH cells = assay: Binding to nuclear DNA (DNA extraction, gamma counting); type: cell-based, human; settings: for Radioligand (CPM ± SD), Non-Decay Corrected: 100 µg DNA, SKNSH (SST-2 negative); for % Specifically Bound / CPM Specifically Bound (Difference), Non-Decay Corrected / Radioligand + Unlabeled Ligand (CPM ± SD), Non-Decay Corrected: SKNSH DNA; for Radioligand + Unlabeled Ligand (CPM ± SD), Non-Decay Corrected: + octreotide acetate
Method: (§1) Cells were removed from the culture surface using a sterile rubber policeman. The suspended cells were washed three times in cold Dulbecco's phosphate buffered saline and processed through a DNA extraction procedure according to the vendor's directions (GenomicPrep® cells and Tissue DNA Isolation Kit, Pharmacia Biotech, Piscataway, NJ). The cells were incubated in the Cell Lysis Solution of the DNA isolation kit at 37°C for 10 minutes. Next, 3 µl of the Rnase Solution was added to the cell lysate, followed by thorough mixing and incubation at 37°C for 1 hour. The samples were cooled to room temperature, and 200 µl of the Protein Precipitation Solution were added. Following vortexing, the contents of each tube were centrifuged at 14,000 x g for 1 min, and the DNA pellet was washed with 70% ethanol. Following drying the DNA was hydrated in a DNA Hydration Solution, and the concentration of DNA determined by spectrometry at 260 nm. One hundred microgram (100 µg) quantities of each treatment were transferred to radioactive counting vials, and the amount of radioactivity associated with each was measured in a Beckman 5500 gamma counter. The data, as presented in Table 6, were obtained as counts per minute (cpm). The differences between radioactivity measured in cells incubated solely with radioligand and in cells incubated with both radioligand and unlabeled ligand were statistically analyzed using ANOVA.
(§2) Additionally, the DNA from each flask was divided in half, and 1 mg of DNA from each flask was treated with proteinase-K (Lite Technologies, Gaithersburg, MD) for 1 hour at 37°C. The enzyme-treated DNA was then reprecipitated with ethanol and sodium acetate, washed with cold ethanol, and redissolved in DNA hydration solution. The concentration was determined by spectrophotometry at 260 nm. One hundred microgram (100 µg) of protease-treated DNA and an equal quantity of untreated DNA were transferred to radioactive counting vials and the amount of radioactivity measured in a Beckman 5500 gamma counter, as described above. The data, as presented in Table 7 and Figure 13, were obtained as counts per minute (cpm).

DNA of IMR-32 cells = assay: as above; type: cell-based, human; settings: for Radioligand (CPM ± SD), Non-Decay Corrected: 100 µg DNA, IMR-32 (SST-2 positive); for % Specifically Bound / CPM Specifically Bound (Difference), Non-Decay Corrected / Radioligand (CPM ± SD), Decay Corrected Values / SPM Specifically Bound (Difference), Decay Corrected Values / Radioligand + Unlabeled Ligand (CPM ± SD), Decay Corrected Values / Radioligand + Unlabeled Ligand (CPM ± SD), Non-Decay Corrected: IMR-32 DNA; for Radioligand + Unlabeled Ligand (CPM ± SD), Decay Corrected Values / Radioligand + Unlabeled Ligand (CPM ± SD), Non-Decay Corrected: + octreotide acetate
Method: as §1, §2

[3] = 100µg DNA, mean of three experiments
[4] = 100µg DNA, proteinase-K, mean of three experiments
[5] = 100µg DNA, single replicate experiments

(^111In-DTPA-D-Phe^1)-octreotide [^111In-pentetreotide]
% initiation of angiogenic growth [1]: lowest % initiation
vessel area ([1]; digital image analyzer): the least area of new growth
infusion ratio relative to the bolus ratio ([2]; Infusion 1): 3 fold
infusion ratio relative to the bolus ratio ([2]; Infusion 2): 4 fold
infusion ratio relative to the bolus ratio ([2]; Infusion 3): 5 fold
highest ratio relative to the highest ratio from the bolus injection ([2]; Infusion Dose 1, after the first 24 hr infusion): almost five times higher
tumor foci identifiable by gamma scintigraphy ([2]; Infusion Dose 3, gamma camera scintigraphy): still identifiable by gamma scintigraphy thirteen days after completion of the last infusion dose
Radioligand (CPM ± SD), Non-Decay Corrected (DNA of SKNSH cells; 60 minutes): 85 ± 8 CPM
Radioligand (CPM ± SD), Non-Decay Corrected (DNA of SKNSH cells; 4320 minutes): 232 ± 10 CPM
Radioligand (CPM ± SD), Non-Decay Corrected (DNA of SKNSH cells; […]): 87 ± 1 CPM
Binding to Cellular DNA, SKNSH CELLS Untreated (CPM), Mean + S.D. (DNA of SKNSH cells; [3]): 285 ± 56 CPM
Binding to Cellular DNA, SKNSH CELLS Protease Treated (CPM), Mean + S.D. (DNA of SKNSH cells; [4]): 247 ± 149 CPM
Binding to Cellular DNA, SKNSH CELLS Untreated (CPM) (DNA of SKNSH cells; [5]): 316 CPM and 319 CPM
% Specifically Bound (DNA of SKNSH cells; 60 minutes): 0%
CPM Specifically Bound (Difference), Non-Decay Corrected (DNA of SKNSH cells; 60 minutes): -6 CPM
CPM Specifically Bound (Difference), Non-Decay Corrected (DNA of SKNSH cells; 4320 minutes): +58 CPM
Radioligand + Unlabeled Ligand (CPM ± SD), Non-Decay Corrected (DNA of SKNSH cells; 60 minutes): 91 ± 25 CPM
Radioligand + Unlabeled Ligand (CPM ± SD), Non-Decay Corrected (DNA of SKNSH cells; 4320 minutes): 174 ± 41 CPM
% Specifically Bound (DNA of SKNSH cells; […]): 8%
CPM Specifically Bound (Difference), Non-Decay Corrected (DNA of SKNSH cells; […]): +7 CPM
Radioligand (CPM ± SD), Non-Decay Corrected (DNA of IMR-32 cells; 30 mins): 128 ± 28 CPM
Radioligand (CPM ± SD), Non-Decay Corrected (DNA of IMR-32 cells; 60 mins): 152 ± 165 CPM
Radioligand (CPM ± SD), Non-Decay Corrected (DNA of IMR-32 cells; 180 mins): 291 ± 44 CPM
Radioligand (CPM ± SD), Non-Decay Corrected (DNA of IMR-32 cells; 1440 mins): 264 ± 104 CPM
Radioligand (CPM ± SD), Non-Decay Corrected (DNA of IMR-32 cells; 2880 mins): 624 ± 59 CPM
Binding to Cellular DNA, IMR-32 CELLS Untreated (CPM), Mean + S.D. (DNA of IMR-32 cells; [3]): 12,066 ± 2273 CPM
Binding to Cellular DNA, IMR-32 CELLS Protease Treated (CPM) (DNA of IMR-32 cells; 100µg DNA, proteinase-K 1 hour 37°C, single replicate experiments): 10,276 CPM and 9.564 CPM and 12,648 CPM
Binding to Cellular DNA, IMR-32 CELLS Protease Treated (CPM), Mean + S.D. (DNA of IMR-32 cells; [4]): 10,829 ± 1614 CPM
Binding to Cellular DNA, IMR-32 CELLS Untreated (CPM) (DNA of IMR-32 cells; [5]): 11,512 CPM and 10,122 CPM and 14,566 CPM
total bound CPM removed by the protease treatment (DNA of IMR-32 cells; DNA of IMR-32 cells, proteinase-K): 10-13%
% Specifically Bound (DNA of IMR-32 cells; 30 mins): 35%
CPM Specifically Bound (Difference), Non-Decay Corrected (DNA of IMR-32 cells; 30 mins): 45 CPM
Radioligand (CPM ± SD), Decay Corrected Values (DNA of IMR-32 cells; 30 mins): 128 ± 28 CPM
SPM Specifically Bound (Difference), Decay Corrected Values (DNA of IMR-32 cells; 30 mins): 45 CPM
% Specifically Bound (DNA of IMR-32 cells; 60 mins): 45%
CPM Specifically Bound (Difference), Non-Decay Corrected (DNA of IMR-32 cells; 60 mins): 69 CPM
Radioligand (CPM ± SD), Decay Corrected Values (DNA of IMR-32 cells; 60 mins): 157 ± 165 CPM
SPM Specifically Bound (Difference), Decay Corrected Values (DNA of IMR-32 cells; 60 mins): 69 CPM
% Specifically Bound (DNA of IMR-32 cells; 180 mins): 43%
CPM Specifically Bound (Difference), Non-Decay Corrected (DNA of IMR-32 cells; 180 mins): 126 CPM
Radioligand (CPM ± SD), Decay Corrected Values (DNA of IMR-32 cells; 180 mins): 291 ± 44 CPM
SPM Specifically Bound (Difference), Decay Corrected Values (DNA of IMR-32 cells; 180 mins): 126 CPM
% Specifically Bound (DNA of IMR-32 cells; 1440 mins): 67%
CPM Specifically Bound (Difference), Non-Decay Corrected (DNA of IMR-32 cells; 1440 mins): 177 CPM
Radioligand (CPM ± SD), Decay Corrected Values (DNA of IMR-32 cells; 1440 mins): 338 ± 133 CPM
SPM Specifically Bound (Difference), Decay Corrected Values (DNA of IMR-32 cells; 1440 mins): 226 CPM
% Specifically Bound (DNA of IMR-32 cells; 2880 mins): 67%
CPM Specifically Bound (Difference), Non-Decay Corrected (DNA of IMR-32 cells; 2880 mins): 421 CPM
Radioligand (CPM ± SD), Decay Corrected Values (DNA of IMR-32 cells; 2880 mins): 1023 ± 97 CPM
SPM Specifically Bound (Difference), Decay Corrected Values (DNA of IMR-32 cells; 2880 mins): 690 CPM
Radioligand + Unlabeled Ligand (CPM ± SD), Decay Corrected Values (DNA of IMR-32 cells; 30 mins): 83 ± 12 CPM
Radioligand + Unlabeled Ligand (CPM ± SD), Non-Decay Corrected (DNA of IMR-32 cells; 30 mins): 83 ± 12 CPM
Radioligand + Unlabeled Ligand (CPM ± SD), Decay Corrected Values (DNA of IMR-32 cells; 60 mins): 83 ± 1 CPM
Radioligand + Unlabeled Ligand (CPM ± SD), Non-Decay Corrected (DNA of IMR-32 cells; 60 mins): 83 ± 1 CPM
Radioligand + Unlabeled Ligand (CPM ± SD), Decay Corrected Values (DNA of IMR-32 cells; 180 mins): 165 ± 15 CPM
Radioligand + Unlabeled Ligand (CPM ± SD), Non-Decay Corrected (DNA of IMR-32 cells; 180 mins): 165 ± 15 CPM
Radioligand + Unlabeled Ligand (CPM ± SD), Decay Corrected Values (DNA of IMR-32 cells; 1440 mins): 112 ± 8 CPM
Radioligand + Unlabeled Ligand (CPM ± SD), Non-Decay Corrected (DNA of IMR-32 cells; 1440 mins): 87 ± 6 CPM
Radioligand + Unlabeled Ligand (CPM ± SD), Decay Corrected Values (DNA of IMR-32 cells; 2880 mins): 332 ± 33 CPM
Radioligand + Unlabeled Ligand (CPM ± SD), Non-Decay Corrected (DNA of IMR-32 cells; 2880 mins): 203 ± 20 CPM
